From patent publication US6737383B1, “Herbicidal oxadiazolidines” (priority 1999, dated 2004)

Assays:
cocklebur = assay: Test B pre/postemergence cocklebur; assay type: in vivo, Xanthium strumarium
How it was run: (§1)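 Herbicidal effect was estimated by eye on a ten-point control scale after plants spent twelve to sixteen days in a greenhouse following soil or foliar treatment. Foliar sprays targeted plants at one to four leaves; all doses were formulated in a non-phytotoxic solvent with surfactant.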

pigweed = assay: Test B pre/postemergence pigweed; assay type: in vivo, Amaranthus retroflexus
How it was run: as §1

sugar beet = assay: Test B pre/postemergence sugar beet; assay type: in vivo, Beta vulgaris
How it was run: as §1

bamyardgrass = assay: Test B flood test barnyardgrass; assay type: in vivo, Echinochloa crus-galli
How it was run: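 Each value is a visual injury score relative to controls, with 10 meaning complete control and 0 no effect. Evaluation took place twelve to sixteen days after the 2-leaf-stage plants were treated and kept in the greenhouse.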

winter wheat [1] = assay: Test E winter wheat; assay type: in vivo, Triticum aestivum; conditions: Postemergence; for Plant response rating, Wheat (winter): 0 to 100 scale
How it was run: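 Plants were grown under normal greenhouse practice; for postemergence, in sandy loam soil mixed 60:40 with potting mix, treated at the 1- to 4-leaf stage. The compound was in a non-phytotoxic solvent carrying a surfactant. After roughly 21 to 28 days plants were scored visually against untreated plants.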

blackgrass = assay: Test E blackgrass; assay type: in vivo, Alopecurus myosuroides; conditions: Preemergence
green foxtail = assay: Test E green foxtail; assay type: in vivo, Setaria viridis; conditions: Preemergence
Italian ryegrass = assay: Test E Italian ryegrass; assay type: in vivo, Lolium multiflorum; conditions: Preemergence
winter wheat [2] = assay: Test E winter wheat; assay type: in vivo, Triticum aestivum; conditions: Preemergence
wild oat = assay: Test E wild oat; assay type: in vivo, Avena fatua; conditions: Preemergence
winter barley = assay: Test E winter barley; assay type: in vivo, Hordeum vulgare; conditions: Preemergence
[3] = Postemergence, Rate 125 g/ha, scale of 0 to 10 where 0 is no effect and 10 is complete control
[4] = Preemergence, Rate 62 g/ha, scale of 0 to 10 where 0 is no effect and 10 is complete control
[5] = Preemergence, Rate 125 g/ha, 0 is no effect, 10 is complete control
[6] = Preemergence, Rate 250 g/ha, scale 0 to 10, 0 is no effect, 10 is complete control
[7] = Preemergence, Rate 500 g/ha, scale 0 to 10 (0 no effect, 10 complete control)
[8] = Rate 62 g/ha, Postemergence, scale of 0 to 10 where 0 is no effect and 10 is complete control
[9] = Rate 250 g/ha, Postemergence, scale 0 to 10, 0 is no effect, 10 is complete control
[10] = Rate 500 g/ha, Postemergence, scale 0 to 10
[11] = Rate 62 g/ha, 0 to 100 scale, 0 no effect, 100 complete control
[12] = Rate 125 g/ha, 0 to 100 scale (0 no effect, 100 complete control)
[13] = Rate 500 g/ha, 0 to 100 scale where 0 is no effect and 100 is complete control

Cc1nsc(C)c1-n1c(=O)on(C(=O)N(c2ccc(F)cc2F)C(C)C)c1=O [Compound 158]
50: Blackgrass plant response rating (0 to 100 scale) (blackgrass; Rate 250 g/ha) | Plant response rating, Blackgrass (blackgrass; [13]) | Plant response rating, Green foxtail (green foxtail; [13]) | I. Ryegrass plant response rating (0 to 100 scale) (Italian ryegrass; Rate 250 g/ha) | Plant response rating, I. Ryegrass (Italian ryegrass; [13]) | Plant response rating, Wild oat (wild oat; [11]) | Plant response rating, Wild oat (wild oat; [12]) | Wild oat plant response rating (0 to 100 scale) (wild oat; Rate 250 g/ha)
4: Redroot pigweed plant response rating (pigweed; [10])
10: Plant response rating, Wheat (winter) (winter wheat [1]; Rate 62 g/ha) | Plant response rating, Blackgrass (blackgrass; [11]) | Plant response rating, Green foxtail (green foxtail; [12]) | Plant response rating, I. Ryegrass (Italian ryegrass; [11]) | Plant response rating, Wheat (winter) (winter wheat [2]; [12]) | Plant response rating, Barley (winter) (winter barley; [11])
0: Cocklebur plant response rating (cocklebur; [3]) | Cocklebur plant response rating (cocklebur; [4]) | Cocklebur plant response rating (0 to 10 scale) (cocklebur; [5]) | Cocklebur plant response rating (cocklebur; [6]) | Cocklebur plant response rating (cocklebur; [7]) | Cocklebur plant response rating (cocklebur; [8]) | Plant response rating, Cocklebur (cocklebur; [9]) | Cocklebur plant response rating (cocklebur; [10]) | Redroot pigweed plant response rating (pigweed; [4]) | Redroot pigweed plant response rating (0 to 10 scale) (pigweed; [5]) | Redroot pigweed plant response rating (pigweed; [6]) | Redroot pigweed plant response rating (pigweed; [8]) | Sugarbeets plant response rating (sugar beet; [3]) | Sugarbeets plant response rating (sugar beet; [4]) | Sugarbeets plant response rating (0 to 10 scale) (sugar beet; [5]) | Sugarbeets plant response rating (sugar beet; [6]) | Sugarbeets plant response rating (sugar beet; [7]) | Sugarbeets plant response rating (sugar beet; [8]) | Plant response rating, Sugarbeets (sugar beet; [9]) | Sugarbeets plant response rating (sugar beet; [10]) | Barnyardgrass plant response rating (bamyardgrass; Postemergence (flood test species), Rate 125 g/ha, scale of 0 to 10 where 0 is no effect and 10 is complete control) | Barnyardgrass plant response rating (bamyardgrass; Rate 62 g/ha, Postemergence section, flood test species, scale of 0 to 10 where 0 is no effect and 10 is complete control) | Plant response rating, Barnyardgrass (bamyardgrass; Rate 250 g/ha, Postemergence (flood test), scale 0 to 10, 0 is no effect, 10 is complete control) | Barnyardgrass plant response rating (bamyardgrass; Rate 500 g/ha, listed under Postemergence (flood test species), scale 0 to 10) | Plant response rating, Green foxtail (green foxtail; [11]) | Plant response rating, Wheat (winter) (winter wheat [2]; [11])
60: Plant response rating, Wild oat (wild oat; [13])
2: Redroot pigweed plant response rating (pigweed; [3]) | Redroot pigweed plant response rating (pigweed; [7]) | Plant response rating, Redroot pigweed (pigweed; [9])
40: Wheat (winter) plant response rating (winter wheat [1]; Rate 250 g/ha, 0 to 100 scale where 0 is no effect and 100 is complete control)
15: Plant response rating, Wheat (winter) (winter wheat [1]; Rate 125 g/ha)
20: Plant response rating, Blackgrass (blackgrass; [12]) | Green foxtail plant response rating (0 to 100 scale) (green foxtail; Rate 250 g/ha) | Plant response rating, I. Ryegrass (Italian ryegrass; [12]) | Plant response rating, Barley (winter) (winter barley; [12])
30: Plant response rating, Wheat (winter) (winter wheat [1]; Rate 500 g/ha, 0 no effect, 100 complete control) | Wheat (winter) plant response rating (0 to 100 scale) (winter wheat [2]; Rate 250 g/ha) | Barley (winter) plant response rating (0 to 100 scale) (winter barley; Rate 250 g/ha) | Plant response rating, Barley (winter) (winter barley; [13])
